Laboratory results taken from patent publication US9006185B2, “Use of cell-permeable peptide inhibitors of the JNK signal transduction pathway for the treatment of various diseases” (Xigen Inflammation Ltd., priority 2008, dated 2015).

Experiments:
[1] = test system: endogenous JNK in HepG2 cells; experiment: AlphaScreen, endogenous IL-1 dependent JNK activity in HepG2 cells; assay type: cell-based; details: FIG. 3 panel d
Description: HepG2 cells were seeded at 3,000 cells/well the day prior the experiment. Then, increasing concentrations of either interleukin-1 [IL-1 beta v)] or tumor necrosis factor [TNFalpha (•)] (a) were added to activate JNK for 30 minutes. Cells were lysed in 20 mM Hepes, 0.5% Tween pH 7.4 and processed for AlphaScreen JNK. (b) Z′ for the JNK activity induced by 10 ng/ml IL-1 and measured in 384 wells/plate (n=96). (c) Inhibition of endogenous IL-1 beta-induced JNK activity with chemical JNK inhibitors [staurosporin (°) and SP600125 (•)]. (d) Effect of peptidic inhibitors L-TAT-IB1(s) according to SEQ ID NO: 9 [here abbreviated as L-JNKi (ν)) and D-TAT-IB1(s) according to SEQ ID NO: 11 (here abbreviated as D-JNKi (♦)) and JBDs (•) (corresponds to L-JNKI without the TAT sequence)] on IL-1 dependent JNK activity. All panels are representative of three independent experiments (n=3). […]
Principle: AlphaScreen is a non-radioactive bead-based technology used to study biomolecular interactions in a microplate format. The acronym ALPHA stands for Amplified Luminescence Proximity Homogenous Assay. […]
Kinase reagents (B-GST-cJun, anti P-cJun antibody and active JNK3) were first diluted in kinase buffer (20 mM Tris-HCl pH 7.6, 10 mM MgCl2, 1 mM DTT, 100 μM Na3VO4, 0.01% Tween-20) and added to wells (15 μl). […] AlphaScreen signal was analyzed directly on the Fusion or En Vision apparatus.

hAPP Tg mice = experiment: Morris Water Maze in hAPP transgenic mice; assay type: in vivo
Description: i) Introduction • The study was designed to evaluate the efficacy of the test substance (XG-102, SEQ ID NO: 11) on behavioral, biochemical and histological markers using 5 months (±2 weeks) old female hAPP Tg mice. Therefore, mice were treated every two or three weeks up to 4 months and in the end of the treatment period behavior was evaluated in the Morris Water Maze. At sacrifice brain, CSF and blood were collected. Aβ40 and Aβ42 levels were determined in four different brain homogenate fractions as well as in CSF of Tg mice. Plaque load was quantified in the cortex and the hippocampus of 8 Tg animals per treatment group.
ii) Animals • Female Tg mice with a C57BL/6×DBA background and an age of 5 months (±2 week) were randomly assigned to treatment groups 1 to 3 (n=12). […]
v) Morris Water Maze (MWM) • The Morris Water Maze (MWM) task was conducted in a black circular pool of a diameter of 100 cm. […] For the quantification of escape latency (the time [second]—the mouse needed to find the hidden platform and therefore to escape from the water), of pathway (the length of the trajectory [meter] to reach the target) and of the abidance in the goal quadrant a computerized tracking system was used. […] The camera detected the signal of the light emitting diode (LED), which was fixed with a little hairgrip on the mouse's tail. […]

CC(C)C[C@@H](NC(=O)[C@@H](Cc1ccccc1)NC(=O)[C@H]1CCCN1C(=O)[C@@H](CCC(N)=O)NC(=O)[C@H](NC(=O)[C@H]1CCCN1C(=O)[C@@H](CCCNC(=N)N)NC(=O)[C@@H](CO)NC(=O)[C@@H](CCC(N)=O)NC(=O)[C@H](N)CC(=O)O)C(C)C)C(=O)N[C@H](CC(N)=O)C(=O)N[C@H](CC(C)C)C(=O)N[C@@H](C(=O)N[C@@H](C(=O)N1CCC[C@@H]1C(=O)N[C@H](CCCNC(=N)N)C(=O)N[C@H](CCCCN)C(=O)N1CCC[C@@H]1C(=O)N[C@H](CCCNC(=N)N)C(=O)N1CCC[C@@H]1C(=O)N1CCC[C@@H]1C(=O)N[C@H](CCCNC(=N)N)C(=O)N[C@H](CCCNC(=N)N)C(=O)N[C@H](CCCNC(=N)N)C(=O)N[C@H](CCC(N)=O)C(=O)N[C@H](CCCNC(=N)N)C(=O)N[C@H](CCCNC(=N)N)C(=O)N[C@H](CCCCN)C(=O)N[C@H](CCCCN)C(=O)N[C@H](CCCNC(=N)N)C(=O)NCC(=O)O)[C@H](C)O)[C@H](C)O [XG-102]
inhibition of IL-1 dependent endogenous JNK activity [1]: effectively inhibits JNK activity, even better than L-TAT-IB1(s)
learning performance in the MWM (hAPP Tg mice; 0.1 mg/kg): a tendency to have worse learning performance between day 1 and day 4
spatial learning in the MWM (hAPP Tg mice; 0.1 mg/kg every two weeks or 10 mg/kg every three weeks s.c., four months): remained widely uninfluenced
